This is an account of results in the supplement of paper PMC10702517.

This data set in a line: chemical recovery from spiked human plasma; higher = better extraction. The following applies: pooled human plasma.
Where [1] appears, read: extraction method: PES+SPE (3 d PDMS equilibration then HLB SPE).
Where [2] appears, read: extraction method: SPE only (HLB 96-well).
Where [3] appears, read: extraction method: solvent precipitation (ACN + hexane).
Setting [4] is: extraction method: SPE only (HLB 96-well), PES comparison experiment.

± gives the standard deviation.

`CCNc1nc(NCC)[nH]c(=O)n1` [Simazine-2-Hydroxy]: the chemical recovery reads like this: under setting [1], 20.1 ± 4.3%; under setting [2], 14.8 ± 5.5%; under setting [3], 75.6 ± 6%.

`N[C@@H](CC(=O)N1CCn2c(nnc2C(F)(F)F)C1)Cc1cc(F)c(F)cc1F` [Sitagliptin]: the chemical recovery is 33.4 ± 2.7% under setting [1], 30 ± 3.4% under setting [2] and 72.7 ± 3.6% under setting [3].

Regarding `CNC(=O)c1cc(Oc2ccc(NC(=O)Nc3ccc(Cl)c(C(F)(F)F)c3)cc2)ccn1` [Sorafenib], the chemical recovery is, setting by setting: under setting [2], 61.3 ± 14%; under setting [3], 74.4 ± 5.8%.

For `O=C1C[C@@H]2OCC=C3CN4CC[C@]56c7ccccc7N1[C@H]5[C@H]2[C@H]3C[C@H]46` [Strychnine], the chemical recovery under setting [3] was 59.5 ± 4.5%.

For `O=C(O)CCCCCCC(=O)O` [Suberic-acid], the chemical recovery reads like this: under setting [1], 99.8 ± 34%; under setting [2], 82.2 ± 2.5%.

Take `OC[C@H]1O[C@H](O[C@]2(CCl)O[C@H](CCl)[C@@H](O)[C@@H]2O)[C@H](O)[C@@H](O)[C@H]1Cl` [Sucralose]: the chemical recovery turned out to be 23 ± 2.4% under setting [1], 21.6 ± 1.4% under setting [2] and 58.3 ± 3.9% under setting [4].

`Nc1ccc(S(=O)(=O)Nc2nccs2)cc1` [Sulfathiazole]: the chemical recovery under setting [2] stood at 31.1 ± 2.5%, the chemical recovery under setting [4] amounted to 51.1 ± 6.3% and the chemical recovery under setting [3] amounted to 69.2 ± 3.2%.

Turning to `CC(C)(C)C(O)(CCc1ccc(Cl)cc1)Cn1cncn1` (configuration not stated) [Tebuconazole], under setting [3], the chemical recovery was 77.8 ± 3.1%.

For `CCOP(=S)(OCC)SCSC(C)(C)C` [Terbufos], the chemical recovery under setting [2] worked out at 14.7 ± 4.8%.

Turning to `CCNc1nc(NC(C)(C)C)[nH]c(=O)n1` [Terbuthylazine-2-hydroxy], the chemical recovery runs as follows: under setting [1], 41.4 ± 3.8%; under setting [2], 35.5 ± 3.4%; under setting [4], 43.6 ± 5.5%; under setting [3], 76.7 ± 3.9%.

As for `CC(=O)N(CCN(C(C)=O)C(C)=O)C(C)=O` [Tetraacetylethylenediamine], the chemical recovery under setting [1] worked out at 29.2 ± 6.4%.

In turn, `CCCC[N+](CCCC)(CCCC)CCCC` [Tetrabutylammonium] gave a chemical recovery under setting [2] of 43 ± 3.8%.

Regarding `CCCCCCCCCCCCCCOS(=O)(=O)O` [Tetradecylsulfate], the chemical recovery runs as follows: under setting [2], 28.4 ± 6.5%; under setting [3], 35.5 ± 5.1%.

The compound `CCCCCCCCCCCCCC[N+](C)(C)C` [Tetradecyltrimethylammonium] registered a chemical recovery under setting [2] of 94.4 ± 29%.

The compound `CC[N+](CC)(CC)CC` [Tetraethylammonium] returned a chemical recovery under setting [2] of 1.23 ± 0.72%.

For `COCCOCCOCCOCCOC` [Tetraglyme], the chemical recovery under setting [1] amounted to 31.9 ± 3.7%, the chemical recovery under setting [2] turned out to be 28.4 ± 3.6%, the chemical recovery under setting [4] is 39.7 ± 9% and the chemical recovery under setting [3] worked out at 76.1 ± 3.7%.

The compound `Cn1cnc2c1c(=O)[nH]c(=O)n2C` [Theobromine] registered a chemical recovery under setting [2] of 77.3 ± 28%.

In the case of `Cn1c(=O)c2[nH]cnc2n(C)c1=O` [Theophyllin], the chemical recovery reads like this: under setting [4], 95.7 ± 22%; under setting [3], 101 ± 6.1%.

As to `c1ccc2[nH]c(-c3cscn3)nc2c1` [Thiabendazole], the chemical recovery was 40.6 ± 4.9% under setting [1], 41.3 ± 3% under setting [2], 49.3 ± 3.5% under setting [4] and 80.4 ± 4.5% under setting [3].

In the case of `CN1COCN(Cc2cnc(Cl)s2)/C1=N\[N+](=O)[O-]` [Thiamethoxam], the chemical recovery is, setting by setting: under setting [1], 55.7 ± 4.8%; under setting [2], 50 ± 3.5%; under setting [3], 73 ± 2.7%.

For `COP(=S)(OC)Oc1c(Cl)cc(C)cc1Cl` [Tolclofos-methyl], the chemical recovery came to 33.8 ± 9.1% under setting [2] and 62 ± 6.2% under setting [3].

Consider `Cc1c(Cl)cccc1Nc1ccccc1C(=O)O` [Tolfenamic-acid], for which the chemical recovery was 56.7 ± 5.2% under setting [1], 36.5 ± 12% under setting [2] and 47.5 ± 1.9% under setting [3].

Turning to `COc1cccc([C@@]2(O)CCCC[C@@H]2CN(C)C)c1` [Tramadol], the chemical recovery came out at 31.3 ± 3.1% under setting [1] and 31.2 ± 2.6% under setting [2].

The compound `C[C@]12C=CC3=C4CCC(=O)C=C4CCC3C1CC[C@@H]2O` (some centres not stated) [Trenbolone] had a chemical recovery under setting [4] of 47.4 ± 6.8%.

For `CS(=O)(=O)OC[C@H](O)[C@@H](O)COS(C)(=O)=O` [Treosulfan], the chemical recovery came to 7.98 ± 1.3% under setting [1] and 18.7 ± 3.8% under setting [2].

In turn, `CC(=O)OCC(COC(C)=O)OC(C)=O` [Triacetin] displayed a chemical recovery under setting [2] of 30.3 ± 3.4%.

In turn, `CC1(C)O[C@@H]2C[C@H]3[C@@H]4CCC5=CC(=O)C=C[C@]5(C)[C@@]4(F)[C@@H](O)C[C@]3(C)[C@]2(C(=O)CO)O1` [Triamcinolone acetonide] showed a chemical recovery under setting [4] of 47.3 ± 4.9%.

Take `O=C(O)COc1nc(Cl)c(Cl)cc1Cl` [Triclopyr]: the chemical recovery reads like this: under setting [1], 43 ± 3.5%; under setting [2], 37 ± 3.9%; under setting [3], 70.3 ± 2.9%.

As for `CCCCOCCOCCOCCO` [Triethylene-Glycol-Monobutyl-Ether], the chemical recovery under setting [1] turned out to be 165 ± 16% and the chemical recovery under setting [2] came to 109 ± 30%.

`COCCOCCOCCOC` [Triglyme] gave a chemical recovery under setting [2] of 24.9 ± 4.5%.

As to `COc1cc(Cc2cnc(N)nc2N)cc(OC)c1OC` [Trimethoprim], the chemical recovery runs as follows: under setting [1], 39.2 ± 3.2%; under setting [2], 45 ± 1.5%; under setting [4], 48 ± 6.2%; under setting [3], 72.5 ± 4.2%.

Consider `COC(=O)CC(O)(CC(=O)OC)C(=O)OC` [Trimethylcitrate], for which the chemical recovery is, setting by setting: under setting [1], 24.5 ± 2.7%; under setting [2], 30.7 ± 4.5%; under setting [3], 12.5 ± 2.5%.

With `CCCCCCCC[N+](C)(C)C` [Trimethyloctylammonium], the chemical recovery reads like this: under setting [1], 38.7 ± 3.8%; under setting [2], 35 ± 2.5%; under setting [4], 45.7 ± 6.1%; under setting [3], 72.1 ± 3%.
